{
  "source": "patent US20150025077A1",
  "about": "(COYOTE PHARMACEUTICALS, INC., priority 2012, published 2015)",
  "key": {"HSP90": {"test_system": "HSP90", "assay": "HSP90 gene expression in rat brain tissue, qRT-PCR", "assay_type": "in vivo", "details": "12 mg/kg oral", "description": "[…] Expression of selected HSPs was detected using qRT-PCR with expression of the GAPDH gene used as the control. To represent the effect of CNS-102 on HSP expression, mean fold change is calculated as CNS-102 treated/PBS treated for each HSP at each time point."}, "Sod1 mutant mice": {"test_system": "Sod1 mutant mice", "assay_type": "in vivo", "from_the_text": "Values represent means±SEMs.\nSubjects were weighed and tested for Grip Strength, and assigned Clinical and Neurological scores three times a week beginning at P90 and five times a week beginning at P100. The table below summarizes the experimental design of the study.\nThe grip strength test assesses motor function and control of the fore- and hindpaws. Mice were allowed to grab the bars on the Chatillon DFIS-10 digital force gauge (Largo, Fla.), while being gently pulled parallel away from the bars by the tail. The maximum force measured prior to release of the subject's paw from the bar was recorded.\nAnimals were scored using the scoring system tabulated below."}, "HSP70": {"test_system": "HSP70", "assay": "HSP70 expression in neuro2A cells, western blot", "assay_type": "cell-based, mouse", "details": "for HSP70 western signal (absence of compounds = 1.00): 48 hours, GGTI-298", "description": "Differentiation was induced and cells incubated with geranylgeranyl transferase I inhibitor, GGTI-298. Cells were harvested and lysates were prepared and analyzed by western blot for HSP70 and HSP90. Western signals in the absence of the compounds were normalized as 1.00."}, "Sprague-Dawley rats": {"test_system": "Sprague-Dawley rats", "assay": "Kainic acid induced neurodegeneration and seizure behaviors in rats (Examples 20, 21)", "assay_type": "in vivo, rat", "details": "oral", "from_the_text": "Seizure behaviors were observed and scored (Ref. R. J. Racine, Modification of seizure activity by electrical stimulation: II. Motor seizure, Electroencephalogr. Clin. […] Modifications were made for the methods). Brain tissues of rats were sectioned on histology slides, and neurons in hippocampus tissues were stained by Nissl. Neurons in dentate gyrus tissues damaged by Kainic acid were quantified. The Memantine composition used in comparison refers to a commercially available NMDA receptor […]. […] Seizure behaviors were observed and scored (Ref. R. J. Racine, Modification of seizure activity by electrical stimulation: II. Motor seizure, Electroencephalogr. Clin. […] Modifications were made for the methods). Brain tissues of rats were sectioned on histology slides, and neurons in hippocampus tissues were stained by Nissl. Neurons damaged by Kainic acid and behavior scores were quantified."}, "Rap1": {"test_system": "Rap1", "assay": "Prenylation of Rap1 in Neuro2A cells, western blotting", "assay_type": "cell-based, mouse", "details": "100 nM", "how_it_was_run": "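Mouse Neuro2A cells in DMEM/10% FBS were treated with compound for 24 h, then GGTI-298 was added for a further 24 h. Un-prenylated and total Rap1 were quantified by western blot, normalized to GAPDH; the un-prenylated/total ratio was expressed as percent of GGTI-only control, mean of two biological repeats.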"}, "[1]": {"test_system": "Rat primary motor neurons", "assay": "Axon extension of rat primary motor neurons", "assay_type": "cell-based", "details": "72 hrs; read-out: EC50 (cells extending axons)", "description": "Rat primary motor neurons were isolated from embryonic spinal cords in accordance with the method of Henderson et al.; J Cohen and G P Wilkin (ed.), Neural Cell Culture, (1995) p69-81 which is herein incorporated by reference in its entirety. Briefly, spinal cords were dissected from day 15 embryo (E15) and incubated in a trypsin solution, and followed by DNase treatment to release spinal cord cells from tissue fragments. The cell suspension was centrifuged to remove tissue fragments. Then motor neurons were enriched by density gradient centrifugation.\nMotor neurons were cultured in serum-free neurobasal medium containing insulin, forskolin, 3-isobutyl-1-methylxanthine, neurotrophic factors, Bovine serum albumin, selenium, transferrin, putrescine, progesterone and B27 supplement in tissue culture plate coated with poly-ornithine and laminin.\nRat primary motor neurons were prepared and cultured as described in Example 13. […] The cells extending axons were counted in five different fields for each treatment after 72 hrs. Percentage of positive cells relative to total cells in the same magnification field was calculated and the results were expressed as means+/−standard deviations, n=5."}},
  "data": [
    {"smiles": "CC(=O)CC/C=C(\\C)CC/C=C(\\C)CC/C=C(\\C)CCC=C(C)C", "note": "[CNS-102]", "values": [
      {"measurement": "HSP90 mean fold change (CNS-102 treated/PBS treated), mean ± SD", "setting": "HSP90; 24 h", "result": "1.32 ± 0.95"},
      {"measurement": "HSP90 mean fold change (CNS-102 treated/PBS treated), mean ± SD", "setting": "HSP90; 48 h", "result": "1.16 ± 0.55"},
      {"measurement": "HSP90 mean fold change (CNS-102 treated/PBS treated), mean ± SD", "setting": "HSP90; 72 h", "result": "2.59 ± 1.27"},
      {"measurement": "HSP90 mean fold change (CNS-102 treated/PBS treated), mean ± SD", "setting": "HSP90; 96 h", "result": "1.68 ± 0.72"},
      {"measurement": "clinical and neuroscore testing", "setting": "Sod1 mutant mice; Sod1 mutant mice, CNS-102 12 mg/kg or Riluzole 8 mg/kg daily oral, vs vehicle", "result": "tended to outperform group D"},
      {"measurement": "neuroscore testing", "setting": "Sod1 mutant mice; Sod1 mutant mice, several timepoints around and after P100, vs vehicle", "result": "significantly outperforms group D"},
      {"measurement": "blood and neurology examinations", "setting": "Sod1 mutant mice; more than two months of once-daily oral 12 mg/kg", "result": "no abnormalities in blood and neurology examinations"},
      {"measurement": "body weight", "setting": "Sod1 mutant mice; wild type mice, group F (CNS-102) vs group E (vehicle)", "result": "no noticeable differences"},
      {"measurement": "toxicity or behavioral abnormalities", "setting": "Sod1 mutant mice; wildtype animals dosed with vehicle versus CNS-102 12 mg/kg daily", "result": "does not lead to obvious toxicity or behavioral abnormalities"},
      {"measurement": "HSP70 western signal (absence of compounds = 1.00)", "setting": "HSP70; 100 nM", "result": 1.38},
      {"measurement": "HSP70 western signal (absence of compounds = 1.00)", "setting": "HSP70; 1 μM", "result": 2.05},
      {"measurement": "HSP70 western signal (absence of compounds = 1.00)", "setting": "HSP70; 10 μM", "result": 2.14},
      {"measurement": "induction of HSP70 expression", "setting": "HSP70; various concentrations", "result": "induce expression of HSP70"},
      {"measurement": "Mean of Hippocampus CA3 Neurons Damaged", "setting": "Sprague-Dawley rats; 3 mg/Kg rat", "result": 10.25, "unit": "Arbitrary units"},
      {"measurement": "Mean of Seizure behaviors scores", "setting": "Sprague-Dawley rats; 3 mg/Kg rat", "result": 27.5},
      {"measurement": "Mean of Hippocampus CA3 Neurons Damaged", "setting": "Sprague-Dawley rats; 12 mg/Kg rat", "result": 10.16, "unit": "Arbitrary units"},
      {"measurement": "Mean of Seizure behaviors scores", "setting": "Sprague-Dawley rats; 12 mg/Kg rat", "result": 22.5},
      {"measurement": "Mean of Hippocampus CA3 Neurons Damaged", "setting": "Sprague-Dawley rats; 25 mg/Kg rat", "result": 1.97, "unit": "Arbitrary units"},
      {"measurement": "Mean of Seizure behaviors scores", "setting": "Sprague-Dawley rats; 25 mg/Kg rat", "result": 25.75},
      {"measurement": "Seizure behaviors scores", "setting": "Sprague-Dawley rats; Kainic acid, vehicle 34", "result": 18.8},
      {"measurement": "prenylation of Rap1 compared to control", "setting": "Rap1; student's t-test, P=0.08", "result": "slightly increase the prenylation of Rap1"},
      {"measurement": "unprenylated/total RAP1 (%)", "setting": "Rap1; with GGTI-298, percentage of control (GGTI only)", "result": 59, "unit": "%"},
      {"measurement": "EC50", "setting": "[1]", "result": 920, "unit": "pM"}
    ]}
  ]
}
